From ChEMBL document CHEMBL5523734, “Backbone-Determined Antiarrhythmic Structure-Activity Relationships for a Mirror Image, Oligomeric Depsipeptide Natural Product” (J Med Chem, 2024)
The source made the active and inactive calls. No cut-off for these calls is given here. Numbered stars: 1 amine (or outer) side, 2 acyl side, 3 side chain; on linkers, the order of the positions; unused ones are H or OH. Square brackets hold non-standard residues; d marks the D form. Peptide text beside a SMILES is read from it. X1 = CCCCC[C@H](O[*:1])C(=O)[*:2]; NMeAhp(2) = CCCCC[C@H](NC)C(=O)O; Ahp(2) = CCCCC[C@H](N)C(=O)O; dNMeA = CN[C@H](C)C(=O)O

Tests used:
[1] = biological target: Ryanodine receptor 2 (Mus musculus) (UniProt E9Q401); experiment: Inhibition of RyR2-mediated calcium spark frequency in saponin-permeabilized left ventricular myocytes of C57BL/6J mouse at 25 uM incubated for 15 min by Fluo-4 dye based analysis; assay type: cell-based; settings: Ventricular myocyte
[2] = Passive permeability of compound by PAMPA; assay type: ADME

Chain of Ryanodine receptor 2 (Mus musculus) (E9Q401 whole entry): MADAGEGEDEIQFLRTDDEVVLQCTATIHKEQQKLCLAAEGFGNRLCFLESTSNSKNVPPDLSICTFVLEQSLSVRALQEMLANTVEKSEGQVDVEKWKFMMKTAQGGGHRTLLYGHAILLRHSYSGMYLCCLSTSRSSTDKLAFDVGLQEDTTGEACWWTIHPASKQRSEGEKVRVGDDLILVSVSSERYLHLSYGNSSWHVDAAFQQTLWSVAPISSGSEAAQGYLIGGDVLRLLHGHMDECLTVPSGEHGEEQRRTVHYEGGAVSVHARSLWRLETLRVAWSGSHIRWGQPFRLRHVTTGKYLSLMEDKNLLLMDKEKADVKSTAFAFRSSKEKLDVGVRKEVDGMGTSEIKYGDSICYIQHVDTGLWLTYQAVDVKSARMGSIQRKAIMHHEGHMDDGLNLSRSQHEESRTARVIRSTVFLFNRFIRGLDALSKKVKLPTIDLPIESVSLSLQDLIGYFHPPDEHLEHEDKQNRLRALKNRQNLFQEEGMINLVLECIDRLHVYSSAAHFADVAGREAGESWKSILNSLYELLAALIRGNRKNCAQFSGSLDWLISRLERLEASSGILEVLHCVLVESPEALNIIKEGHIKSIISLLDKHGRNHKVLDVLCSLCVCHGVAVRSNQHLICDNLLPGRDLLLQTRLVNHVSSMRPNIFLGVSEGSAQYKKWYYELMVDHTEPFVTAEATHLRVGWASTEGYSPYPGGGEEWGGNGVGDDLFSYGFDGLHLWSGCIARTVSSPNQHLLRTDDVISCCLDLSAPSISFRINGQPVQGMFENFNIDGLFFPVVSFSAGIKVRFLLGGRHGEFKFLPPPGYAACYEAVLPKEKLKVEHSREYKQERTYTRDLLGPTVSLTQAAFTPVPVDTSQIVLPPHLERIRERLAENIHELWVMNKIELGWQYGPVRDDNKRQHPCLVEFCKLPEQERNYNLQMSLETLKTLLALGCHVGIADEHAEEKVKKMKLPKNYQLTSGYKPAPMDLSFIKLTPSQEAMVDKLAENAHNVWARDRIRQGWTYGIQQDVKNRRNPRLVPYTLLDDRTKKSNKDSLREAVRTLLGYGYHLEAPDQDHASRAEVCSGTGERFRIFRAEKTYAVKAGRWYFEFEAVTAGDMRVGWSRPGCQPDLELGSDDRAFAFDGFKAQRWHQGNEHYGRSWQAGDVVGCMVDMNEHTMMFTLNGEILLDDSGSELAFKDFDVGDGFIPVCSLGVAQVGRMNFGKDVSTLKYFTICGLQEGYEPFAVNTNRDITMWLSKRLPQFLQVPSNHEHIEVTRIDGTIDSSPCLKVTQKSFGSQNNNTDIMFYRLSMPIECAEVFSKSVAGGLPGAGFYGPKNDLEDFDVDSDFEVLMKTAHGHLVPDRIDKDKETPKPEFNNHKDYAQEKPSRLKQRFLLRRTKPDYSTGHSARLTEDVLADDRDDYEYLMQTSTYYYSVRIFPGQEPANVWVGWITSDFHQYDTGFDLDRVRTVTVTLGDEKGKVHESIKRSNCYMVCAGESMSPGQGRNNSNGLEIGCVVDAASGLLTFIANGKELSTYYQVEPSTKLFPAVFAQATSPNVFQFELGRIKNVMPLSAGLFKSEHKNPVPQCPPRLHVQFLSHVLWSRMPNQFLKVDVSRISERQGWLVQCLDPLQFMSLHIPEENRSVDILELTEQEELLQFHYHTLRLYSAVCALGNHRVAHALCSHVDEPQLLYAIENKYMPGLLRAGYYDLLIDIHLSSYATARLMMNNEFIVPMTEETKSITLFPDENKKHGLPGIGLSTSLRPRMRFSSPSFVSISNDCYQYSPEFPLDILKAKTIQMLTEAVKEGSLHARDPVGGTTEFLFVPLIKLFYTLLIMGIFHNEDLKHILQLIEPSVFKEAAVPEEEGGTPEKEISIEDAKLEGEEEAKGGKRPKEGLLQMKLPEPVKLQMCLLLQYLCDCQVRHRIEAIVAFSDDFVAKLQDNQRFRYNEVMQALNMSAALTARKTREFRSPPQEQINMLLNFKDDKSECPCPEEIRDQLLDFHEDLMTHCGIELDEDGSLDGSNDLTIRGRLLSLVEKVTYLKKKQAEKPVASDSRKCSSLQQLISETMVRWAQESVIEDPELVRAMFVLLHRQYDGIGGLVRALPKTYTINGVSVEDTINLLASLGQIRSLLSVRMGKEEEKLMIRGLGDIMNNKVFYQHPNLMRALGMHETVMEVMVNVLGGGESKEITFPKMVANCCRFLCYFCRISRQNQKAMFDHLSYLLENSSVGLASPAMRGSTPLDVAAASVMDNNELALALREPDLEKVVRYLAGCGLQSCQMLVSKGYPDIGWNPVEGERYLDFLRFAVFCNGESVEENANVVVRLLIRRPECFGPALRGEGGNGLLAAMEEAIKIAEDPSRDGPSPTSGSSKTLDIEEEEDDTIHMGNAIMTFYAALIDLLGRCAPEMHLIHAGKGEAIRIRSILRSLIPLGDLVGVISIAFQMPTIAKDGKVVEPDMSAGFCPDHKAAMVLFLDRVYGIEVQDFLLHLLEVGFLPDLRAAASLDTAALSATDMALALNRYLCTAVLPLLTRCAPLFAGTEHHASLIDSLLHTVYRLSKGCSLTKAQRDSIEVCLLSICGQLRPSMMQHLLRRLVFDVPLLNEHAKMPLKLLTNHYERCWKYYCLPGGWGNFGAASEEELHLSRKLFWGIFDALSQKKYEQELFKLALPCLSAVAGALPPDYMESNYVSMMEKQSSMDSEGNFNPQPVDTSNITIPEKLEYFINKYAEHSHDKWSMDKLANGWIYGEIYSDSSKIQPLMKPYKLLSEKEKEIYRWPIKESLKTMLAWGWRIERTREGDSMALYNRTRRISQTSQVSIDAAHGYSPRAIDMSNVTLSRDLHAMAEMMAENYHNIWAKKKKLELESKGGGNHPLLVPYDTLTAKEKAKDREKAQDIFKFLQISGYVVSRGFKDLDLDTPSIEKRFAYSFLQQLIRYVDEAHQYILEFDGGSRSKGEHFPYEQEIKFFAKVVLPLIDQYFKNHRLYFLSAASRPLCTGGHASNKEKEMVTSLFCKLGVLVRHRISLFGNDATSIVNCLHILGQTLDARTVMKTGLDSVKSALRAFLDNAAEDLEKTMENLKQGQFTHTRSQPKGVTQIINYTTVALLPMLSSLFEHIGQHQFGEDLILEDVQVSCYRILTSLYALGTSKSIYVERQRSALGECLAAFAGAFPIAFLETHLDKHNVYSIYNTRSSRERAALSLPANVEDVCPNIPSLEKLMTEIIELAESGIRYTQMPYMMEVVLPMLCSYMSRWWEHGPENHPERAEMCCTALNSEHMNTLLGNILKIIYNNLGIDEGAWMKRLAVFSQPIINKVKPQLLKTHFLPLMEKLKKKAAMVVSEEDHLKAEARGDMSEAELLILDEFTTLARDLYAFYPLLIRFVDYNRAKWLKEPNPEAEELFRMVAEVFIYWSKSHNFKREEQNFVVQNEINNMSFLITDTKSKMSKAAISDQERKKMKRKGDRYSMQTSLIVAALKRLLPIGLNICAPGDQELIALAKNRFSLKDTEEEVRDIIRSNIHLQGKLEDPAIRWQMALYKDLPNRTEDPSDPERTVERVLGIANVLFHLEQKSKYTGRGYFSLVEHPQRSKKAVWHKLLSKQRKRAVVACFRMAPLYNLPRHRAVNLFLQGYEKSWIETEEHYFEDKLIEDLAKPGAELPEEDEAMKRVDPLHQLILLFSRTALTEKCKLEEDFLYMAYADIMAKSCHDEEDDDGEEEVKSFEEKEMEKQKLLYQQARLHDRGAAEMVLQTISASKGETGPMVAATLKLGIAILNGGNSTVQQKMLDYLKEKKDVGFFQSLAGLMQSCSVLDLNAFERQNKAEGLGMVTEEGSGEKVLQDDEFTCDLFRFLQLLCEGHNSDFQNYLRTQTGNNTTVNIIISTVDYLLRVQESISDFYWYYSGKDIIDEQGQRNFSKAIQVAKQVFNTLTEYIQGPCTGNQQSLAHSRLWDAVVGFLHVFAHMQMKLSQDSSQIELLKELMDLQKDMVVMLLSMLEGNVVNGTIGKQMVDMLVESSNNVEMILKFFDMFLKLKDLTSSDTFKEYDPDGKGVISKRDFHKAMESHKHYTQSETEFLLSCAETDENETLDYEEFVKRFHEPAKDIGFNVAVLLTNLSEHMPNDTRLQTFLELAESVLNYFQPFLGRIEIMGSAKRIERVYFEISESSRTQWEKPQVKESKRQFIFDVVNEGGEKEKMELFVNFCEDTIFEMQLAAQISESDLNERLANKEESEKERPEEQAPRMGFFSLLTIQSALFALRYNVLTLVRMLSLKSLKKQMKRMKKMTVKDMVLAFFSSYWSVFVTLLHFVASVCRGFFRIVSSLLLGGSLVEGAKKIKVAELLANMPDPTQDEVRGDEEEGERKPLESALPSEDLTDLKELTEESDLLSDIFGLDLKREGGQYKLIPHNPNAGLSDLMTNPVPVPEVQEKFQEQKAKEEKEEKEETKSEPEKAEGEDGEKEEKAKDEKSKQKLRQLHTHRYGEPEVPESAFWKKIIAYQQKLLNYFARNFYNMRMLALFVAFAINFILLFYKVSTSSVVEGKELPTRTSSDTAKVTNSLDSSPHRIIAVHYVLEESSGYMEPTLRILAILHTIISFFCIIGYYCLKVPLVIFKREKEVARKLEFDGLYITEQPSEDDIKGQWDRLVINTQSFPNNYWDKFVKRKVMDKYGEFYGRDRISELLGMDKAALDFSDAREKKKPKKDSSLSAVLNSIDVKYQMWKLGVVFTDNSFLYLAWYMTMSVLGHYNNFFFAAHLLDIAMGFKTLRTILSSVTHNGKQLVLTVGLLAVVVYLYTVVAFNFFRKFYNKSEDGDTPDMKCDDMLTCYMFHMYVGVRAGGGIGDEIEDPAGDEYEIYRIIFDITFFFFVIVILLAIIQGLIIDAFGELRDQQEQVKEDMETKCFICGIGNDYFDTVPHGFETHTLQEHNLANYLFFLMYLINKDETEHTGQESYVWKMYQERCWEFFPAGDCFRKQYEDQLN

Structure (SMILES) | inhibition [1] | permeability [2]
CCCCC[C@@H]1OC(=O)[C@@H](C)N(C)C(=O)[C@H](CCCCC)OC(=O)[C@@H](C)N(C)C(=O)[C@H](CCCCC)N(C)C(=O)[C@@H](C)N(C)C(=O)[C@H](CCCCC)OC(=O)[C@@H](C)N(C)C1=O | Active | Permeable
CCCCC[C@@H]1OC(=O)[C@@H](C)N(C)C(=O)[C@H](CCCCC)N(C)C(=O)[C@@H](C)N(C)C(=O)[C@H](CCCCC)N(C)C(=O)[C@@H](C)N(C)C(=O)[C@H](CCCCC)N(C)C(=O)[C@@H](C)N(C)C1=O | inactive | –
CCCCC[C@@H]1OC(=O)[C@@H](C)N(C)C(=O)[C@H](CCCCC)N(C)C(=O)[C@@H](C)N(C)C(=O)[C@H](CCCCC)N(C)C(=O)[C@@H](C)N(C)C(=O)[C@H](CCCCC)OC(=O)[C@@H](C)N(C)C1=O | inactive | –
CCCCC[C@@H]1OC(=O)[C@@H](C)N(C)C(=O)[C@H](CCCCC)N(C)C(=O)[C@@H](C)N(C)C(=O)[C@H](CCCCC)OC(=O)[C@@H](C)N(C)C(=O)[C@H](CCCCC)N(C)C(=O)[C@@H](C)N(C)C1=O | inactive | –
CCCCC[C@@H]1OC(=O)[C@@H](C)N(C)C(=O)[C@H](CCCCC)OC(=O)[C@@H](C)N(C)C(=O)[C@H](CCCCC)OC(=O)[C@@H](C)N(C)C(=O)[C@H](CCCCC)OC(=O)[C@@H](C)N(C)C1=O | inactive | –
CCCCC[C@@H]1OC(=O)[C@@H](C)N(C)C(=O)[C@H](CCCCC)OC(=O)[C@@H](C)N(C)C(=O)[C@H](CCCCC)OC(=O)[C@@H](C)N(C)C(=O)[C@H](CCCCC)OC(=O)[C@@H](C)NC1=O | inactive | –
CCCCC[C@@H]1OC(=O)[C@@H](C)N(C)C(=O)[C@H](CCCCC)OC(=O)[C@@H](C)N(C)C(=O)[C@H](CCCCC)OC(=O)[C@@H](C)NC(=O)[C@H](CCCCC)OC(=O)[C@@H](C)NC1=O | inactive | –
CCCCC[C@@H]1OC(=O)[C@@H](C)N(C)C(=O)[C@H](CCCCC)OC(=O)[C@@H](C)NC(=O)[C@H](CCCCC)OC(=O)[C@@H](C)N(C)C(=O)[C@H](CCCCC)OC(=O)[C@@H](C)NC1=O | inactive | –
CCCCC[C@@H]1OC(=O)[C@@H](C)N(C)C(=O)[C@H](CCCCC)OC(=O)[C@@H](C)NC(=O)[C@H](CCCCC)OC(=O)[C@@H](C)NC(=O)[C@H](CCCCC)OC(=O)[C@@H](C)NC1=O | inactive | –
CCCCC[C@@H]1OC(=O)[C@@H](C)NC(=O)[C@H](CCCCC)OC(=O)[C@@H](C)NC(=O)[C@H](CCCCC)OC(=O)[C@@H](C)NC(=O)[C@H](CCCCC)OC(=O)[C@@H](C)NC1=O | inactive | –
CCCCC[C@@H]1NC(=O)[C@@H](C)N(C)C(=O)[C@H](CCCCC)NC(=O)[C@@H](C)N(C)C(=O)[C@H](CCCCC)NC(=O)[C@@H](C)N(C)C(=O)[C@H](CCCCC)NC(=O)[C@@H](C)N(C)C1=O (cyclo([Ahp(2)][dNMeA][Ahp(2)][dNMeA][Ahp(2)][dNMeA][Ahp(2)][dNMeA])) | inactive | –
CCCCC[C@@H]1NC(=O)[C@@H](C)N(C)C(=O)[C@H](CCCCC)NC(=O)[C@@H](C)N(C)C(=O)[C@H](CCCCC)N(C)C(=O)[C@@H](C)N(C)C(=O)[C@H](CCCCC)NC(=O)[C@@H](C)N(C)C1=O (cyclo([Ahp(2)][dNMeA][Ahp(2)][dNMeA][Ahp(2)][dNMeA][NMeAhp(2)][dNMeA])) | inactive | –
CCCCC[C@@H]1NC(=O)[C@@H](C)N(C)C(=O)[C@H](CCCCC)NC(=O)[C@@H](C)N(C)C(=O)[C@H](CCCCC)OC(=O)[C@@H](C)N(C)C(=O)[C@H](CCCCC)NC(=O)[C@@H](C)N(C)C1=O (cyclo([Ahp(2)][dNMeA][Ahp(2)][dNMeA][Ahp(2)][dNMeA][X1][dNMeA])) | inactive | –
CCCCC[C@@H]1NC(=O)[C@@H](C)N(C)C(=O)[C@H](CCCCC)N(C)C(=O)[C@@H](C)N(C)C(=O)[C@H](CCCCC)N(C)C(=O)[C@@H](C)N(C)C(=O)[C@H](CCCCC)NC(=O)[C@@H](C)N(C)C1=O (cyclo([Ahp(2)][dNMeA][Ahp(2)][dNMeA][NMeAhp(2)][dNMeA][NMeAhp(2)][dNMeA])) | inactive | –
CCCCC[C@@H]1NC(=O)[C@@H](C)N(C)C(=O)[C@H](CCCCC)OC(=O)[C@@H](C)N(C)C(=O)[C@H](CCCCC)OC(=O)[C@@H](C)N(C)C(=O)[C@H](CCCCC)NC(=O)[C@@H](C)N(C)C1=O (cyclo([Ahp(2)][dNMeA][Ahp(2)][dNMeA][X1][dNMeA][X1][dNMeA])) | inactive | –
CCCCC[C@@H]1NC(=O)[C@@H](C)N(C)C(=O)[C@H](CCCCC)N(C)C(=O)[C@@H](C)N(C)C(=O)[C@H](CCCCC)NC(=O)[C@@H](C)N(C)C(=O)[C@H](CCCCC)N(C)C(=O)[C@@H](C)N(C)C1=O (cyclo([Ahp(2)][dNMeA][NMeAhp(2)][dNMeA][Ahp(2)][dNMeA][NMeAhp(2)][dNMeA])) | inactive | –
CCCCC[C@@H]1NC(=O)[C@@H](C)N(C)C(=O)[C@H](CCCCC)N(C)C(=O)[C@@H](C)N(C)C(=O)[C@H](CCCCC)N(C)C(=O)[C@@H](C)N(C)C(=O)[C@H](CCCCC)N(C)C(=O)[C@@H](C)N(C)C1=O (cyclo([Ahp(2)][dNMeA][NMeAhp(2)][dNMeA][NMeAhp(2)][dNMeA][NMeAhp(2)][dNMeA])) | inactive | –
CCCCC[C@@H]1NC(=O)[C@@H](C)N(C)C(=O)[C@H](CCCCC)OC(=O)[C@@H](C)N(C)C(=O)[C@H](CCCCC)NC(=O)[C@@H](C)N(C)C(=O)[C@H](CCCCC)OC(=O)[C@@H](C)N(C)C1=O (cyclo([Ahp(2)][dNMeA][X1][dNMeA][Ahp(2)][dNMeA][X1][dNMeA])) | inactive | –
CCCCC[C@@H]1NC(=O)[C@@H](C)N(C)C(=O)[C@H](CCCCC)OC(=O)[C@@H](C)N(C)C(=O)[C@H](CCCCC)OC(=O)[C@@H](C)N(C)C(=O)[C@H](CCCCC)OC(=O)[C@@H](C)N(C)C1=O (cyclo([Ahp(2)][dNMeA][X1][dNMeA][X1][dNMeA][X1][dNMeA])) | Active | Permeable
CCCCC[C@H]1C(=O)N[C@H](C)C(=O)N(C)[C@@H](CCCCC)C(=O)N[C@H](C)C(=O)N(C)[C@@H](CCCCC)C(=O)N[C@H](C)C(=O)N(C)[C@@H](CCCCC)C(=O)N[C@H](C)C(=O)N1C (cyclo([NMeAhp(2)][dA][NMeAhp(2)][dA][NMeAhp(2)][dA][NMeAhp(2)][dA])) | inactive | –
CCCCC[C@H]1C(=O)N[C@H](C)C(=O)N(C)[C@@H](CCCCC)C(=O)N[C@H](C)C(=O)N(C)[C@@H](CCCCC)C(=O)N[C@H](C)C(=O)N(C)[C@@H](CCCCC)C(=O)N(C)[C@H](C)C(=O)N1C (cyclo([NMeAhp(2)][dA][NMeAhp(2)][dA][NMeAhp(2)][dA][NMeAhp(2)][dNMeA])) | inactive | –
CCCCC[C@H]1C(=O)N[C@H](C)C(=O)N(C)[C@@H](CCCCC)C(=O)N[C@H](C)C(=O)N(C)[C@@H](CCCCC)C(=O)N(C)[C@H](C)C(=O)N(C)[C@@H](CCCCC)C(=O)N(C)[C@H](C)C(=O)N1C (cyclo([NMeAhp(2)][dA][NMeAhp(2)][dA][NMeAhp(2)][dNMeA][NMeAhp(2)][dNMeA])) | inactive | –
CCCCC[C@H]1C(=O)N[C@H](C)C(=O)N(C)[C@@H](CCCCC)C(=O)N(C)[C@H](C)C(=O)N(C)[C@@H](CCCCC)C(=O)N[C@H](C)C(=O)N(C)[C@@H](CCCCC)C(=O)N(C)[C@H](C)C(=O)N1C (cyclo([NMeAhp(2)][dA][NMeAhp(2)][dNMeA][NMeAhp(2)][dA][NMeAhp(2)][dNMeA])) | inactive | –
CCCCC[C@H]1C(=O)N[C@H](C)C(=O)N(C)[C@@H](CCCCC)C(=O)N(C)[C@H](C)C(=O)N(C)[C@@H](CCCCC)C(=O)N(C)[C@H](C)C(=O)N(C)[C@@H](CCCCC)C(=O)N(C)[C@H](C)C(=O)N1C (cyclo([NMeAhp(2)][dA][NMeAhp(2)][dNMeA][NMeAhp(2)][dNMeA][NMeAhp(2)][dNMeA])) | inactive | –
CCCCC[C@H]1C(=O)N(C)[C@H](C)C(=O)N(C)[C@@H](CCCCC)C(=O)N(C)[C@H](C)C(=O)N(C)[C@@H](CCCCC)C(=O)N(C)[C@H](C)C(=O)N(C)[C@@H](CCCCC)C(=O)N(C)[C@H](C)C(=O)N1C (cyclo([NMeAhp(2)][dNMeA][NMeAhp(2)][dNMeA][NMeAhp(2)][dNMeA][NMeAhp(2)][dNMeA])) | inactive | –
